In general, chromatographic logP refers to lipophilicity estimated from chromatographic retention. Low readings indicate a more hydrophilic compound, high ones a more lipophilic compound.

The nature of data set [1]: logP by HPLC on reversed phase columns (EEC directive 79/831 Annex V.A8). The conditions noted are these: method [a]: LC-MS at pH 2.7, 0.1% formic acid in water / acetonitrile gradient 10% to 95%.
For a further data set, the system named is Puccinia recondita. Nature of the data set: In vivo preventive test on Puccinia recondita (brown rust on wheat). As to conditions: wheat plants, preventive spray, 500 ppm, grading 12 days after contamination. The procedure:
Example: In Vivo Preventive Test on Puccinia recondita (Brown Rust on Wheat) […] Wheat plants (“Scipion” variety), sown in starter cups on a 50/50 peat soil-pozzolana substrate and grown at 22° C., are treated at the 1-leaf stage (10 cm height) by spraying with the active ingredient prepared as described above. Plants, used as controls, are treated with the mixture of acetone/tween/DMSO/water not containing the active material. After 24 hours, the plants are contaminated by spraying the leaves with an aqueous suspension of Puccinia […] spores (100 000 spores per ml). […] Grading (% of efficacy) is carried out 12 days after the contamination, in comparison with the control plants. Under these conditions, good (at least 70%) or total protection is observed at a dose of 500 ppm with the following compounds: […]

A further data set relates to Phytophthora infestans. Type of data set: in vivo. As to conditions: tomato plants, preventive spray, 500 ppm, grading 5 days after contamination.
The next data set relates to Sphaerotheca fuliginea. Nature of the data set: In vivo preventive test on Sphaerotheca fuliginea (powdery mildew on cucurbits). The conditions noted are these: gherkin plants, preventive spray, 500 ppm, grading 12 days after contamination. The procedure:
Example: In Vivo Preventive Test on Sphaerotheca fuliginea (Powdery Mildew on Cucurbits) […] Gherkin plants (“Vert petit de Paris” variety), sown in starter cups on a 50/50 peat soil-pozzolana substrate and grown at 24° C., are treated at the Z11 cotyledon stage by spraying with the active ingredient prepared as described above. Plants, used as controls, are treated with the mixture of acetone/tween/DMSO/water not containing the active material. After 24 hours, the plants are contaminated by spraying the cotyledons with an aqueous suspension of Sphaerotheca fuliginea spores (100 000 spores per ml). The spores are collected from infected plants. […] Grading (% of efficacy) is carried out 12 days after the contamination, in comparison with the control plants. Under these conditions, good (at least 70%) or total protection is observed at a dose of 500 ppm with the following compounds: […]

The test system of another data set is Uromyces appendiculatus. Nature of the data set: In vivo preventive test on Uromyces appendiculatus (bean rust). The conditions noted are these: bean plants, preventive spray, 500 ppm, grading 11 days after contamination. The procedure: Example: In Vivo Preventive Test on Uromyces appendiculatus (Bean Rust) […] Bean plants (“Saxa” variety), sown in starter cups on a 50/50 peat soil-pozzolana substrate and grown at 24° C., are treated at the 2-leaf stage (9 cm height) by spraying with the active ingredient prepared as described above. Plants, used as controls, are treated with the mixture of acetone/tween/DMSO/water not containing the active material. After 24 hours, the plants are contaminated by spraying the leaves with an aqueous suspension of Uromyces appendiculatus spores (150 000 spores per ml). […] Grading (% of efficacy) is carried out 11 days after the contamination, in comparison with the control plants. Under these conditions, good (at least 70%) or total protection is observed at a dose of 500 ppm with the following compounds: […]

For data set [2], the system named is Fusarium nivale (var. majus). The data set is described as follows: In vivo Fusarium nivale (var. majus) test (wheat)/preventive. The conditions noted are these: preventive, 500 ppm of active ingredient, evaluated 5 days after inoculation. The procedure:
(§1) Example: In Vivo Fusarium nivale (Var. Majus)-Test (Wheat)/Preventive Solvent: 49 parts by weight of N,N-dimethylacetamide Emulsifier: 1 part by weight of alkylaryl polyglycol ether To produce a suitable preparation of active compound, 1 part by weight of active compound or active compound combination is mixed with the stated amounts of solvent and emulsifier, and the concentrate is diluted with water to the desired concentration. To test for preventive activity, young plants are sprayed with the preparation of active compound or active compound combination at the stated rate of application. After the spray coating has been dried, the plants are slightly injured by using a sandblast and afterwards to they are sprayed with a conidia suspension of Fusarium nivale (var. majus).

For another data set, the system named is Pyrenophora teres. Nature of the data set: In vivo preventive test on Pyrenophora teres (net blotch on barley). As to conditions: barley plants, preventive spray, 500 ppm, grading 14 days after contamination. The method, then: Example: In Vivo Preventive Test on Pyrenophora teres (Net Blotch on Barley) […] Barley plants (“Plaisant” variety), sown in starter cups on a 50/50 peat soil-pozzolana substrate and grown at 22° C., are treated at the 1-leaf stage (10 cm height) by spraying with the active ingredient prepared as described above. Plants, used as controls, are treated with the mixture of acetone/tween/DMSO/water not containing the active material. After 24 hours, the plants are contaminated by spraying the leaves with an aqueous suspension of Pyrenophora teres spores (12 000 spores per ml). The spores are collected from a 12-day-old culture. […] Grading (% of efficacy) is carried out 14 days after the contamination, in comparison with the control plants. Under these conditions, good (at least 70%) or total protection is observed at a dose of 500 ppm with the following compounds: […]

Another data set deals with Pyricularia oryzae. Type of data set: in vivo. As to conditions: rice plants, preventive spray, 500 ppm, grading 6 days after contamination.
A further data set concerns Septoria tritici. Nature of the data set: In vivo preventive test on Septoria tritici (leaf spot on wheat). The conditions noted are these: wheat plants, preventive spray, 500 ppm, grading 24 days after contamination. The method, then:
Example: In Vivo Preventive Test on Septoria tritici (Leaf Spot on Wheat) […] Wheat plants (“Scipion” variety), sown in starter cups on a 50/50 peat soil-pozzolana substrate and grown at 22° C., are treated at the 1-leaf stage (10 cm height) by spraying with the active ingredient prepared as described above. Plants, used as controls, are treated with the mixture of acetone/tween/DMSO/water not containing the active material. After 24 hours, the plants are contaminated by spraying the leaves with an aqueous suspension of cryopreserved Septoria tritici spores (500 000 spores per ml). […] Grading (% of efficacy) is carried out 24 days after the contamination, in comparison with the control plants. Under these conditions, good (at least 70%) or total protection is observed at a dose of 500 ppm with the following compounds: […]

In a further data set the test system is Botrytis cinerea. The data set is described as follows: In vivo preventive test on Botrytis cinerea (grey mould). The conditions noted are these: gherkin plants, preventive spray, 500 ppm, grading 4 to 5 days after contamination. The method, then: Example: In Vivo Preventive Test on Botrytis cinerea (Grey Mould) […] Gherkin plants (“Vert petit de Paris” variety), sown in starter cups on a 50/50 peat soil-pozzolana substrate and grown at 24° C., are treated at the Z11 cotyledon stage by spraying with the active ingredient prepared as described above. Plants, used as controls, are treated with the mixture of acetone/tween/DMSO/water not containing the active material. After 24 hours, the plants are contaminated by spraying the cotyledons with an aqueous suspension of cryopreserved Botrytis cinerea spores (50 000 spores per ml). The spores are suspended in a nutrient solution composed of 10 g/L of PDB, 50 g/L of D-Fructose, 2 g/L of NH4NO3 and 1 g/L of KH2PO4. […] Grading (% of efficacy) is carried out 4 to 5 days after the contamination, in comparison with the control plants. Under these conditions, good (at least 70%) or total protection is observed at a dose of 500 ppm with the following compounds: […]

The test system of another data set is Alternaria brassicae. The data set is described as follows: In vivo preventive test on Alternaria brassicae (leaf spot on radish). The conditions noted are these: radish plants, preventive spray, 500 ppm, grading 6 days after contamination. The procedure: Example: In Vivo Preventive Test on Alternaria brassicae (Leaf Spot on Radish) […] Radish plants (“Pernod Clair” variety), sown in starter cups on a 50/50 peat soil-pozzolana substrate and grown at 17° C., are treated at the cotyledon stage by spraying with the active ingredient prepared as described above. Plants, used as controls, are treated with the mixture of acetone/tween/DMSO/water not containing the active material. After 24 hours, the plants are contaminated by spraying the cotyledons with an aqueous suspension of Alternaria brassicae spores (50 000 spores per ml). The spores are collected from a 15-day-old culture. […] Grading (% of efficacy) is carried out 6 days after the contamination, in comparison with the control plants. Under these conditions, good (at least 70%) or total protection is observed at a dose of 500 ppm with the following compounds: […]

Data set [3] concerns Blumeria graminis fsp. hordei. The data set is described as follows: In vivo Blumeria test (barley)/preventive. The conditions noted are these: preventive, 500 ppm of active ingredient, evaluated 7 days after inoculation. The procedure:
as §1, with “Blumeria Test (Barley)/Preventive” for “Fusarium nivale (Var. Majus)-Test (Wheat)/Preventive”, “dusted” for “slightly injured by using a sandblast and afterwards to they are sprayed”, “spores” for “a conidia suspension”, “Blumeria graminis fsp. hordei.” for “Fusarium nivale (var. majus).”

A further data set is described as follows: physchem. As to conditions: pH 2.7.
Another data set concerns Phakopsora pachyrhizi. The data set is described as follows: In vivo Phakopsora test (soybeans)/preventive. The conditions noted are these: preventive, 100 ppm of active ingredient, evaluated 7 days after inoculation. The procedure: Example: In Vivo Phakopsora Test (Soybeans)/Preventive Solvent: 24.5 parts by weight of acetone • 24.5 parts by weight of dimethylacetamide Emulsifier: • 1 part by weight of alkylaryl polyglycol ether To produce a suitable preparation of active compound, 1 part by weight of active compound is mixed with the stated amounts of solvent and emulsifier, and the concentrate is diluted with water to the desired concentration. To test for preventive activity, young plants are sprayed with the preparation of active compound at the stated rate of application. After the spray coating has dried on, the plants are inoculated with an aqueous to spore suspension of the causal agent of soybean rust (Phakopsora pachyrhizi) and stay for 24 h without light in an incubation cabinet at approximately 24° C. and a relative atmospheric humidity of 95%.

For `C#CCON=C(C)c1ccc(-c2ccccc2NC(=O)c2c(C(F)F)nn(C)c2Cl)cc1` [Example 3], the logP in [1] was 4.06[a]. The Eff. % is listed as 98% in the data set with Puccinia recondita, 99% in the data set with Phytophthora infestans, 70% with Sphaerotheca fuliginea and 100% with Uromyces appendiculatus.
For the molecule `C#CCON=Cc1ccc(-c2ccccc2NC(=O)c2c(C(F)F)nn(C)c2F)cc1` [Example 4], the Eff. % in data set [2] is 80%; in the data set on Pyrenophora teres, 100%; in the data set on Puccinia recondita it was 100%; with Pyricularia oryzae, 80%; in the data set with Phytophthora infestans it was 100%; in the data set with Septoria tritici it was 95%. The Eff. % with Sphaerotheca fuliginea and in the data set with Uromyces appendiculatus was 100% each time. Moreover, the logP in data set [1] is 3.55[a].
As to `CCON=Cc1ccc(-c2ccccc2NC(=O)c2c(C(F)F)nn(C)c2Cl)cc1` [Example 6], the Eff. % in the data set with Pyrenophora teres came out at 100%; with Puccinia recondita it was 100%; in the data set on Botrytis cinerea, 93%; in the data set with Alternaria brassicae it was 97%; with Pyricularia oryzae, 100%; in the data set on Sphaerotheca fuliginea it was 100%. The Eff. % with Uromyces appendiculatus turned out to be 100%. In [1], the logP was 4.19[a].
`CON=Cc1ccc(-c2ccccc2NC(=O)c2c(C(F)F)nn(C)c2Cl)cc1` [Example 8]: the Eff. % is recorded as 97% in the data set on Pyrenophora teres; 100% in data set [3]; 100% in the data set on Puccinia recondita; 73% in the data set on Botrytis cinerea; 80% with Pyricularia oryzae; 100% in the data set with Septoria tritici. Moreover, the Eff. % in the data set with Sphaerotheca fuliginea and with Uromyces appendiculatus was 100% each time. Also, in data set [1], the logP is 4.18[a].
In the case of `CON=Cc1ccc(-c2ccccc2NC(=O)c2c(C(F)F)nn(C)c2F)cc1` [Example 9, 5-fluoro-3-(difluoromethyl)-N-{4′-[(methoxyimino)methyl]biphenyl-2-yl}-1-methyl-1H-pyrazole-4-carboxamide], the Eff. % with Pyrenophora teres is 79%; in the data set on Puccinia recondita, 100%; with Pyricularia oryzae, 80%; with Septoria tritici, 80%; with Sphaerotheca fuliginea, 100%; in the data set with Uromyces appendiculatus it was 100%. The molecule further displayed a chromatographic logP in “physchem” of 3.46.
As for `CC#CCON=C(C)c1ccc(-c2ccccc2NC(=O)c2c(C(F)F)nn(C)c2F)cc1` [Example 13], the Eff. % is on record as 88% with Pyrenophora teres; 100% with Puccinia recondita; 80% with Botrytis cinerea; 80% in the data set with Septoria tritici; 100% in the data set on Sphaerotheca fuliginea; 100% in the data set on Uromyces appendiculatus. This molecule also registered an Eff. % in the data set with Phakopsora pachyrhizi of 100%. For the same molecule, in [1], the logP is 4.11[a].
As to `CC#CCON=C(C)c1ccc(-c2ccccc2NC(=O)c2c(C(F)F)nn(C)c2Cl)cc1` [Example 27], in [1], the logP is 4.41[a]. Besides, the Eff. % in the data set with Puccinia recondita turned out to be 98%; with Septoria tritici, 70%; with Sphaerotheca fuliginea it was 100%; in the data set on Uromyces appendiculatus, 100%; in the data set on Phakopsora pachyrhizi, 100%.
As to `CCON=C(c1ccc(-c2ccccc2NC(=O)c2c(C(F)F)nn(C)c2F)cc1)C(F)(F)F` [Example 29], the Eff. % in data set [2] is 86%; in the data set on Pyrenophora teres, 97%; with Puccinia recondita, 97%; in the data set on Pyricularia oryzae, 83%; with Sphaerotheca fuliginea, 100%; in the data set with Uromyces appendiculatus it was 100%. The same molecule gave an Eff. % in the data set on Phakopsora pachyrhizi of 91%. In addition, in data set [1], the logP was 4.46[a].

(Values after US9765034B2, “5-halogenopyrazole biphenylcarboxamides” (BAYER CROPSCIENCE AG, priority 2012, dated 2017).)
